In patent US20100137449A1, “SUBSTITUTED 1,3-CYCLOPENTADIONE MULTI-TARGET PROTEIN KINASE MODULATORS OF CANCER, ANGIOGENESIS AND THE INFLAMMATORY PATHWAYS ASSOCIATED THEREWITH” (METAPROTEOMICS, LLC, priority 2007, published 2010):

Key:
Assay in all cases: KinaseProfiler Assay
Blk(m) = Blk(m) (Mus musculus, UniProt P16277)
cKit(h) = cKit(h) (Homo sapiens, UniProt P10721)
EphA1(h) = target: T1, EphA1(h) (Homo sapiens, UniProt P21709)
T1 sequence (P21709 26-976): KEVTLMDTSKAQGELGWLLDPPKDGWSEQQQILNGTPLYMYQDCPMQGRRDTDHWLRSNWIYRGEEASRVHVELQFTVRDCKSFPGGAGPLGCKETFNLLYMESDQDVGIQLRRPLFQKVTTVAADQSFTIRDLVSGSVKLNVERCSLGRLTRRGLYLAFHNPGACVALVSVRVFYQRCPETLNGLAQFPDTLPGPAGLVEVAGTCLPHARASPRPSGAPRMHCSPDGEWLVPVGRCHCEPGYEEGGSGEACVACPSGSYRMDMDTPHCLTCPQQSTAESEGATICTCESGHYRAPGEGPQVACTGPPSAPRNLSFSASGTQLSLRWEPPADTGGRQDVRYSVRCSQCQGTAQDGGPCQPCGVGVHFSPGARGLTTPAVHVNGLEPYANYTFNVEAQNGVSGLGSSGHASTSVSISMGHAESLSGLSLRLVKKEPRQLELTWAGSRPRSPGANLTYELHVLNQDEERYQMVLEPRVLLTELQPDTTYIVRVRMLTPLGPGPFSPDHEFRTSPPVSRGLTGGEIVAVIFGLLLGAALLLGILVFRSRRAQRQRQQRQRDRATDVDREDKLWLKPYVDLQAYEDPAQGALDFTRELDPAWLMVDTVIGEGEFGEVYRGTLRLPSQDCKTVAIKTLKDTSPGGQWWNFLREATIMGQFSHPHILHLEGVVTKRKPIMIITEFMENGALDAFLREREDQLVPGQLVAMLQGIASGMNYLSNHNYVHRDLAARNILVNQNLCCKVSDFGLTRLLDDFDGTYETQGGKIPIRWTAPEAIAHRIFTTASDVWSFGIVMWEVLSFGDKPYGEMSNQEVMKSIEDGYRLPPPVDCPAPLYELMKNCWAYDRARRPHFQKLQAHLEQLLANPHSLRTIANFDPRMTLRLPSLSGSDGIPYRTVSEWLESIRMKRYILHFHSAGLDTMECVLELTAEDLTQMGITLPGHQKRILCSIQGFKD

FGFR2(N549H)(h) = FGFR2(N549H)(h) (Homo sapiens, UniProt P21802, N549H)
GSK3α(h) = GSK3α(h) (Homo sapiens, UniProt P49840)
IKKβ(h) = target: T2, IKKβ(h) (Homo sapiens, UniProt O14920)
T2 sequence (O14920 1-756): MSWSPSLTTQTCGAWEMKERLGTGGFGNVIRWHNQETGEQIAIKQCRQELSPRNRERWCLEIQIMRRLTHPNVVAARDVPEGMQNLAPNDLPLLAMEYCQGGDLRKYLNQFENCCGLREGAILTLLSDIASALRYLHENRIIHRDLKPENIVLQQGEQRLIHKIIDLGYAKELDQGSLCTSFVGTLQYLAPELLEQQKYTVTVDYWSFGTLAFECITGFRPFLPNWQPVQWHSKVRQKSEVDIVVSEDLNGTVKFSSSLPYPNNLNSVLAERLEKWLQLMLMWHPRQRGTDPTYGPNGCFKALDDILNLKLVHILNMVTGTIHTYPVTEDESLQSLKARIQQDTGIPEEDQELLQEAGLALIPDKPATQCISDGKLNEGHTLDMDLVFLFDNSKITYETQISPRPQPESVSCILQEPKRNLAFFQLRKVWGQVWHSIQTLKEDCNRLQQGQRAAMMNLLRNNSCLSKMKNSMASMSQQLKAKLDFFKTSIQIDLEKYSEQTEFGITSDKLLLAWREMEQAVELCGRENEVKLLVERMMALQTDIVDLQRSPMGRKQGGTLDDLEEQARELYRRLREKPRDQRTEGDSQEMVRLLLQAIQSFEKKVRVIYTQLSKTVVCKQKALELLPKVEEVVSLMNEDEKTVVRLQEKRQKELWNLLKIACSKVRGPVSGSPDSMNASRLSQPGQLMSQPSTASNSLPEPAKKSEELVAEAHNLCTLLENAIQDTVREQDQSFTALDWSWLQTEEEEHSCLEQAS

Rsk1(r) = Rsk1(r) (Rattus norvegicus, UniProt Q63531)
Chain of Rsk1(r) (Q63531 whole entry): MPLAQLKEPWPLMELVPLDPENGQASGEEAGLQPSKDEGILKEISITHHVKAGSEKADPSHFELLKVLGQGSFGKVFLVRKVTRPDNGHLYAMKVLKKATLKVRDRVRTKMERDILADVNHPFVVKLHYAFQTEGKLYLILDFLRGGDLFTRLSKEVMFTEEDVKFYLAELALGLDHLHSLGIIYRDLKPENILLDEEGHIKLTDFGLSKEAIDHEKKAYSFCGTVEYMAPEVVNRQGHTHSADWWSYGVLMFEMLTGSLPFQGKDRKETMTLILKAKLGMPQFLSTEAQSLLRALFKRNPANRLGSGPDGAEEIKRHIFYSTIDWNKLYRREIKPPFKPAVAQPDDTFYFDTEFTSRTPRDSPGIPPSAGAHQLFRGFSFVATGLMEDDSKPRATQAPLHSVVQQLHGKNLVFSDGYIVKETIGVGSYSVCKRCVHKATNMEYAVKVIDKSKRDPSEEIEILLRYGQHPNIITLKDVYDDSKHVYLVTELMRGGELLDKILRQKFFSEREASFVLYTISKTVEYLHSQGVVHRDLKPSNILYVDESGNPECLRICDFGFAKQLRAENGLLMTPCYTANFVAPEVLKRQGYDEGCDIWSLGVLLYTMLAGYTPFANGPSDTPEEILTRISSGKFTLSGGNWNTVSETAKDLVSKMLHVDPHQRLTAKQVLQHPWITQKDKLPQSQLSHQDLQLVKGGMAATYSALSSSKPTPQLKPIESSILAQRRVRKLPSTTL

Chain of GSK3α(h) (P49840 whole entry): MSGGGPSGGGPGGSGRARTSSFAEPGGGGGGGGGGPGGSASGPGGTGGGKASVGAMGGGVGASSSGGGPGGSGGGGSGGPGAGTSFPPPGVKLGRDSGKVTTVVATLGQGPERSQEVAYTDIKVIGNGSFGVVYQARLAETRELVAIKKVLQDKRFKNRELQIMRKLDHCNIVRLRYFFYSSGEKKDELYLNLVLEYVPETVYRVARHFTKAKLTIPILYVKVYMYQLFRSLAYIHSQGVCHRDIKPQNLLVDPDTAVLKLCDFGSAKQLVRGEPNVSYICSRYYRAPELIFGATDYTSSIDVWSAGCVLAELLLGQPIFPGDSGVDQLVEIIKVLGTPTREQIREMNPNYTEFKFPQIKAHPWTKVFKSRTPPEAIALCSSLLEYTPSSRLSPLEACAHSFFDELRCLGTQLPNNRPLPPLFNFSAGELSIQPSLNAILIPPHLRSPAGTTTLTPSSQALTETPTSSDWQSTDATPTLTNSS
Chain of FGFR2(N549H)(h) (P21802 22-821 N549H): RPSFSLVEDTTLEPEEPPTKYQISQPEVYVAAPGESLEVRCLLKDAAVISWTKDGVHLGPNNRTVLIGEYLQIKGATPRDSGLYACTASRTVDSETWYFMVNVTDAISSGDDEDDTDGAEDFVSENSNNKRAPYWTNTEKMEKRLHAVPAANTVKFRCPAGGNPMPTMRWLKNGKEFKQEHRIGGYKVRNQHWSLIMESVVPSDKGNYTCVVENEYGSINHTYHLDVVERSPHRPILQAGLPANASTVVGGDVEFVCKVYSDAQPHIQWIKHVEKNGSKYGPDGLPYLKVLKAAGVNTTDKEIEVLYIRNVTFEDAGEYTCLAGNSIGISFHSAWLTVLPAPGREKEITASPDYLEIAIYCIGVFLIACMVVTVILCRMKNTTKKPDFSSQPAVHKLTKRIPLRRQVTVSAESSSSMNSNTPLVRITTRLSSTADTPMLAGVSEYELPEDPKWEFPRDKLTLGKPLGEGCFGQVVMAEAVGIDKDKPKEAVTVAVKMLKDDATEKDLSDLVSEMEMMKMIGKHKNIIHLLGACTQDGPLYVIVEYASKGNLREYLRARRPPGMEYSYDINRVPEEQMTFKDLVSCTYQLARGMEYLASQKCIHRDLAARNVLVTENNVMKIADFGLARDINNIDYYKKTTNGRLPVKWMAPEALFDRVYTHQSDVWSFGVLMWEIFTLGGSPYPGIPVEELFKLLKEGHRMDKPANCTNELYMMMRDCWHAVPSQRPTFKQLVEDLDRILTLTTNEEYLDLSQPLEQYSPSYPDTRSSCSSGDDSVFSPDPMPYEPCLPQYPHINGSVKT
Chain of Blk(m) (P16277 whole entry): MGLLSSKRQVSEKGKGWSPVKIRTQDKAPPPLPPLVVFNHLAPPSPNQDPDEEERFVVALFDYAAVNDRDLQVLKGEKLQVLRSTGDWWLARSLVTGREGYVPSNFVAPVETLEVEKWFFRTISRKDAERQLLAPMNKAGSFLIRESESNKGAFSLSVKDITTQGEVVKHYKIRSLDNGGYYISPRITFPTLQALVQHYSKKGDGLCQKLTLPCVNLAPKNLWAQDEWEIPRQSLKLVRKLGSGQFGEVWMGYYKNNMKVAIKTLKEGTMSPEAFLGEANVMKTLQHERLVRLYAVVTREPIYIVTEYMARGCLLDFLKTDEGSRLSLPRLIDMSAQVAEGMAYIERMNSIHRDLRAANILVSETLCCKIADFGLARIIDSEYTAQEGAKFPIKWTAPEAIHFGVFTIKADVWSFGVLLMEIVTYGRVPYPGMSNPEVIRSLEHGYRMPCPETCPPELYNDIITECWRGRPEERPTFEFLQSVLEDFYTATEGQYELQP
Chain of cKit(h) (P10721 26-976): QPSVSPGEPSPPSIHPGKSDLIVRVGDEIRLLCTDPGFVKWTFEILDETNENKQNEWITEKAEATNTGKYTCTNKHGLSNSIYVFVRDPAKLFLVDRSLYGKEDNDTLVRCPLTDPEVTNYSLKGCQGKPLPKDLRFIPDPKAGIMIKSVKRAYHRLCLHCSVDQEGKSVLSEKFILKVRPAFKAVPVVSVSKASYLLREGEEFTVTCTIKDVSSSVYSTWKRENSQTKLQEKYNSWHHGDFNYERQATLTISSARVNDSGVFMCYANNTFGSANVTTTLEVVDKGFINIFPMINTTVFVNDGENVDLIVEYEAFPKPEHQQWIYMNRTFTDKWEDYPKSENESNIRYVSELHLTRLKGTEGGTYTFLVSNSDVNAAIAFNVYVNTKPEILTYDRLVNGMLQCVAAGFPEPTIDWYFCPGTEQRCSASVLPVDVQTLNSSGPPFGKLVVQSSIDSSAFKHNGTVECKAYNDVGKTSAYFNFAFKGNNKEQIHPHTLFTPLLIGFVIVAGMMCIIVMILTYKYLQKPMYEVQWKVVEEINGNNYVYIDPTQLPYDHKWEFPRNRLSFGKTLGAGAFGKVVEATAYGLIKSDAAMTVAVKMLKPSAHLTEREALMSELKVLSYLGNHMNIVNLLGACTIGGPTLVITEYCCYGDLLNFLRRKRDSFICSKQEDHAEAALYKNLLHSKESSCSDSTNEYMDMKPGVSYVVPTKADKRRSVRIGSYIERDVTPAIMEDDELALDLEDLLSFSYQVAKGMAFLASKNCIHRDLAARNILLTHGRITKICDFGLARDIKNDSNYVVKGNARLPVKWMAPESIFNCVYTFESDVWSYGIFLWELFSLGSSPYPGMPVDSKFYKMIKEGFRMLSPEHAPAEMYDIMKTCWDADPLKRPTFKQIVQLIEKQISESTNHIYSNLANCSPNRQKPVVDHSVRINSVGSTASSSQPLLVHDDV

For CC(C)CCC(=O)[C@]1(O)C(O)=C(C(=O)C(C)C)C(=O)[C@H]1CCC(C)C [TH2, tetrahydroiso-cohumulone], the kinase inhibition (Blk(m); 1 μg/ml) was 108% of control, the kinase inhibition (Blk(m); 5 μg/ml) was 115% of control and the kinase inhibition (Blk(m); 25 μg/ml) was 96% of control. For the same compound, the kinase inhibition (Blk(m); 50 μg/ml) was 72% of control, the kinase inhibition (Blk(m); 100 μg/ml) was 53% of control and the kinase inhibition (cKit(h); 1 μg/ml) was 110% of control. The kinase inhibition (cKit(h); 5 μg/ml) was 87% of control, the kinase inhibition (cKit(h); 25 μg/ml) was 86% of control and the kinase inhibition (cKit(h); 50 μg/ml) was 96% of control. For the same compound, the kinase inhibition (cKit(h); 100 μg/ml) was 95% of control, the kinase inhibition (EphA1(h); 1 μg/ml) was 117% of control and the kinase inhibition (EphA1(h); 5 μg/ml) was 116% of control. The kinase inhibition (EphA1(h); 25 μg/ml) was 108% of control, the kinase inhibition (EphA1(h); 50 μg/ml) was 99% of control and the kinase inhibition (EphA1(h); 100 μg/ml) was 85% of control. The kinase inhibition (FGFR2(N549H)(h); 1 μg/ml) was 110% of control, the kinase inhibition (FGFR2(N549H)(h); 5 μg/ml) was 102% of control and the kinase inhibition (FGFR2(N549H)(h); 25 μg/ml) was 103% of control. For the same compound, the kinase inhibition (FGFR2(N549H)(h); 50 μg/ml) was 103% of control, the kinase inhibition (FGFR2(N549H)(h); 100 μg/ml) was 82% of control and the kinase inhibition (GSK3α(h); 1 μg/ml) was 94% of control. The kinase inhibition (GSK3α(h); 5 μg/ml) was 92% of control, the kinase inhibition (GSK3α(h); 25 μg/ml) was 61% of control and the kinase inhibition (GSK3α(h); 50 μg/ml) was 51% of control. For the same compound, the kinase inhibition (GSK3α(h); 100 μg/ml) was 43% of control, the kinase inhibition (IKKβ(h); 1 μg/ml) was 111% of control and the kinase inhibition (IKKβ(h); 5 μg/ml) was 107% of control. For the same compound, the kinase inhibition (IKKβ(h); 25 μg/ml) was 94% of control, the kinase inhibition (IKKβ(h); 50 μg/ml) was 77% of control and the kinase inhibition (IKKβ(h); 100 μg/ml) was 76% of control. For the same compound, the kinase inhibition (Rsk1(r); 1 μg/ml) was 101% of control, the kinase inhibition (Rsk1(r); 5 μg/ml) was 102% of control and the kinase inhibition (Rsk1(r); 25 μg/ml) was 93% of control. The kinase inhibition (Rsk1(r); 50 μg/ml) was 63% of control and the kinase inhibition (Rsk1(r); 100 μg/ml) was 36% of control.
